Measured values from patent publication US6359176B1, “Cationic surfactants, process for producing the same and utilization thereof” (Matsumoto Yushi-Seiyaku Co., Ltd., priority 1999, dated 2002).

Legend:
[1] = Determination of craft point (temperature at which 1 wt % surfactant dissolves clearly, visual inspection); format: physicochemical; details: 1 weight % aqueous solution in pure water
Protocol: (§1) Determination of craft point, critical micelle concentration and surface tension
(§2) An aqueous solution of 1 weight % of a surfactant (solution with pure water) was prepared and the craft point, at which a surfactant dissolves clearly, was determined with visual inspection. And the aqueous solution of several surfactants with varied concentration was prepared with pure water and their surface tension at 25° C. was determined.

[2] = Determination of critical micelle concentration and surface tension of aqueous surfactant solutions; format: physicochemical; details: pure water, 25° C.; for Surface tension γ cmc (mN/m): at cmc
Protocol: as §1, §2

activated sludge = assay: Biodegradability: degradation by microorganisms with degradation tester and closed system oxygen consumption meter; details: 14 days biodegradability test
Protocol: The biodegradability of the derivatives was determined by checking the degree of degradation of those chemicals by microorganisms (procedures defined in Japanese domestic low for regulation of chemical substances and in OECD) with a degradation tester and closed system oxygen consumption meter. The test was continued for 14 days and the biodegradability data was calculated into percentage.
The 100-% degradability in the testing means that whole of a test sample has been degraded into inorganic substances such as carbon dioxide.

CCCCCCCCCCCC(=O)OCC(O)C(O)C(O)C(O)C[N+](C)(C)C.[Cl-] (stereo not drawn) [Monolaurate derivative]
Craft point (1 wt %, ° C.) [1]: <0 °C | Critical micelle concentration cmc [2]: 0.0012 mol/L | Surface tension γ cmc (mN/m) [2]: 30.2 mN/m

CCCCCCCCCCCCCC(=O)OCC(O)C(O)C(O)C(O)C[N+](C)(C)C.[I-] (stereo not drawn) [Monomyristate derivative]
Craft point (1 wt %, ° C.) [1]: <0 °C | Critical micelle concentration cmc [2]: 0.00034 mol/L | Surface tension γ cmc (mN/m) [2]: 34.2 mN/m

CCCCCCCCCCCCCCCC[N+](C)(C)C.[Br-] [Cetyl trimethyl ammonium bromide]
Effect on activated sludge (in words) (activated sludge): inhibited the propagation of activated sludge

CCCCCCCCCCCCCCCC(=O)OCC(O)C(O)C(O)C(O)C[N+](C)(C)C.[Cl-] (stereo not drawn) [Monopalmitate derivative]
Craft point (1 wt %, ° C.) [1]: 33.5 °C

CCCCCCCCCCCCCCCCCC(=O)OCC(O)C(O)C(O)C(O)C[N+](C)(C)C.[I-] (stereo not drawn) [Monostearate derivative]
Craft point (1 wt %, ° C.) [1]: 40.5 °C
